In paper PMC11345399 (The Journal of Biological Chemistry, 2024):
“And” between values parts separate entries of the source, which are not always exact repeats. Identical values can stand only once. Like-named read-outs stand apart in the source and are kept apart here. Marks after values point to notes of the source that are not given here.

Tests used:
[1] = biological target: T1, human mitochondrial RNA polymerase (h-mtRNAP) (Homo sapiens, UniProt O00411); conditions: cited from earlier work
influenza B RdRp [2] = biological target: T2, influenza B RdRp (Influenza B virus, UniProt Q5V8Y6); conditions: cited from earlier work
MERS-CoV RdRp complex [3] = biological target: T3, MERS-CoV RdRp complex (Middle East respiratory syndrome-related coronavirus, UniProt K9N7C7)
PIV-5 RdRp complex = PIV-5 RdRp complex (Parainfluenza virus 5, UniProt Q88434)
RSV RdRp complex [4] = biological target: T4, RSV RdRp complex (Human respiratory syncytial virus A, UniProt P28887); conditions: cited from earlier work
HPIV-3 RdRp complex = HPIV-3 RdRp complex (Human parainfluenza 3 virus, UniProt P12577)
LASV RdRp [5] = biological target: T5, LASV RdRp (Mammarenavirus lassaense, UniProt Q6GWS2)
MERS-CoV RdRp complex [6] = biological target: T3, MERS-CoV RdRp complex; conditions: cited from earlier work
[7] = biological target: T1, human mitochondrial RNA polymerase (h-mtRNAP); type: biochemical
HRV-16 RdRp (3Dpol) = HRV-16 RdRp (3Dpol) (Human rhinovirus 16, UniProt Q82122)
SARS-CoV RdRp complex = conditions: cited from earlier work
influenza B RdRp [8] = biological target: T2, influenza B RdRp; type: biochemical
SARS-CoV-2 RdRp complex [9] = biological target: T6, SARS-CoV-2 RdRp complex (Severe acute respiratory syndrome coronavirus 2, UniProt P0DTD1); conditions: cited from earlier work; for Km: previously reported
RSV RdRp complex [10] = biological target: T4, RSV RdRp complex
LASV RdRp [11] = biological target: T5, LASV RdRp; conditions: cited from earlier work
EV-71 RdRp (3Dpol) = EV-71 RdRp (3Dpol) (Enterovirus A71, UniProt E5RPG3)
HMPV RdRp complex = HMPV RdRp complex (Human metapneumovirus, UniProt Q6WB93)
SARS-CoV-2 RdRp complex [12] = biological target: T6, SARS-CoV-2 RdRp complex
EV-71 RdRp [13] = type: biochemical
PIV-5 RdRp = PIV-5 RdRp (Parainfluenza virus 5, UniProt Q88434); type: biochemical
MERS-CoV RdRp = MERS-CoV RdRp (Middle East respiratory syndrome-related coronavirus, UniProt K9N7C7); type: biochemical
SARS-CoV-2 RdRp = SARS-CoV-2 RdRp (Severe acute respiratory syndrome coronavirus 2, UniProt P0DTD1); type: biochemical
HPIV-3 RdRp = HPIV-3 RdRp (Human parainfluenza 3 virus, UniProt P12577); type: biochemical
HRV-16 RdRp [14] = biological target: T7, HRV-16 RdRp (Human rhinovirus 16, UniProt Q82122); type: biochemical
EV-71 RdRp [15] = type: biochemical; remark: listed apart in the source
HMPV RdRp = HMPV RdRp (Human metapneumovirus, UniProt Q6WB93); type: biochemical
HRV-16 RdRp [16] = biological target: T7, HRV-16 RdRp; type: biochemical; remark: listed apart in the source
RSV RdRp = RSV RdRp (Human respiratory syncytial virus A, UniProt P28887); type: biochemical
[17] = system: N#C[C@@]1(c2ccc3c(N)ncnn23)O[C@H](COP(=O)(O)OP(=O)(O)OP(=O)(O)O)[C@@H](O)[C@H]1O; assay: purified protein, by the assay type; conditions: pH 8.0
[18] = system: Nc1ncnc2c1ncn2[C@@H]1O[C@H](COP(=O)(O)OP(=O)(O)OP(=O)(O)O)[C@@H](O)[C@H]1O; assay: purified protein, by the assay type; conditions: pH 8.0
[19] = SARS-CoV-2 RdRp, ref Gordon et al. ([45])

T1 sequence (O00411 42-1230 limits assumed): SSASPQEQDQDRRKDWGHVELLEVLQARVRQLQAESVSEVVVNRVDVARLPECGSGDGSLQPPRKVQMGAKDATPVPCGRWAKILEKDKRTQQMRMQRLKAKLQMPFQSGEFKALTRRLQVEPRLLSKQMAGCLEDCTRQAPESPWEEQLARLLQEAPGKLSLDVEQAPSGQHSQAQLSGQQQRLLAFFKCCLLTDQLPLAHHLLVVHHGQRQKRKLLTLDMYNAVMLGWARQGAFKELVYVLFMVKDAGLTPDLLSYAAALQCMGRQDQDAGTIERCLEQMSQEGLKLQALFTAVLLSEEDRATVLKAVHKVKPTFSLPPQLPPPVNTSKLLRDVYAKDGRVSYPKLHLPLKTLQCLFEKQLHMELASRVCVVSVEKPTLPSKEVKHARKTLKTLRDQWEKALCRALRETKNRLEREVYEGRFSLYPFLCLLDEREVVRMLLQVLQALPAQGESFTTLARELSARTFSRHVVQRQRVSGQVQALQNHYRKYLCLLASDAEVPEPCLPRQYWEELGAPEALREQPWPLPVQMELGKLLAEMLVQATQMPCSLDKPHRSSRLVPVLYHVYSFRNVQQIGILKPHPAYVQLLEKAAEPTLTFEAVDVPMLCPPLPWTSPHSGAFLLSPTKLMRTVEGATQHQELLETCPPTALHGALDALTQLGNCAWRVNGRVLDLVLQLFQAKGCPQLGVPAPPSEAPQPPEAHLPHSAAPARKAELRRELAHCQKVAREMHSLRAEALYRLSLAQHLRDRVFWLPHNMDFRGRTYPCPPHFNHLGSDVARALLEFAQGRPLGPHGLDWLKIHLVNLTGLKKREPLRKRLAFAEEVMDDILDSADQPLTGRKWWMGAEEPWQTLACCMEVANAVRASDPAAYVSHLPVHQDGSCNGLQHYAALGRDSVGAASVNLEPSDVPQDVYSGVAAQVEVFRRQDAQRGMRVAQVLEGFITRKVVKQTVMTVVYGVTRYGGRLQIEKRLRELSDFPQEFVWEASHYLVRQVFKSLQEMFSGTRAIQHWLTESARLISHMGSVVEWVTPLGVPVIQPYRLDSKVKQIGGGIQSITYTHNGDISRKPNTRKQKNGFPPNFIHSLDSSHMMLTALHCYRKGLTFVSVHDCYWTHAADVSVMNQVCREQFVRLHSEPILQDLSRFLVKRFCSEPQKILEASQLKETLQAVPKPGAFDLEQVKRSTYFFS

## Nc1ncnc2c1ncn2[C@@H]1O[C@H](COP(=O)(O)OP(=O)(O)OP(=O)(O)O)[C@@H](O)[C@H]1O [ATP]
[1]
  Km: 0.05 ± 0.0037 µM
  Vmax (product fraction): 0.98 ± 0.018
Influenza B RdRp [2]
  Vmax (product fraction): 0.73 ± 0.014
MERS-CoV RdRp complex [3]
  Vmax (product fraction): 0.84 ± 0.0090
PIV-5 RdRp complex
  Vmax (product fraction): 0.74 ± 0.026
RSV RdRp complex [4]
  Km: 0.17 ± 0.023 µM
  Vmax (product fraction): 0.76 ± 0.022
HPIV-3 RdRp complex
  Vmax (product fraction): 0.63 ± 0.025
LASV RdRp [5]
  Vmax (product fraction): 0.80 ± 0.0037
MERS-CoV RdRp complex [6]
  Km: 0.017 ± 0.019 µM
  Vmax (product fraction): 0.47 ± 0.011
[7]
  Km: 0.096 ± 0.0091 µM
  Vmax (product fraction): 0.93 ± 0.026
HRV-16 RdRp (3Dpol)
  Vmax (product fraction): 0.90 ± 0.017
SARS-CoV RdRp complex
  Km: 0.03 ± 0.003 µM
  Vmax (product fraction): 0.73 ± 0.017
Influenza B RdRp [8]
  Vmax (product fraction): 0.68 ± 0.014
SARS-CoV-2 RdRp complex [9]; [19]
  Km: 0.03 ± 0.003 µM
RSV RdRp complex [10]
  Vmax (product fraction): 0.61 ± 0.065
LASV RdRp [11]
  Km: 0.11 ± 0.02 µM
  Vmax (product fraction): 0.57 ± 0.032
EV-71 RdRp (3Dpol)
  Vmax (product fraction): 0.96 ± 0.021
HMPV RdRp complex
  Vmax (product fraction): 0.60 ± 0.024 and 0.39 ± 0.028

## N#C[C@@]1(c2ccc3c(N)ncnn23)O[C@H](COP(=O)(O)OP(=O)(O)OP(=O)(O)O)[C@@H](O)[C@H]1O [GS-443902]
[1]
  Km: 21 ± 0.096 µM
  Vmax (product fraction): 0.81 ± 0.013
[1]; h-mtRNAP, ref Tchesnokov et al. ([47])
  Selectivity (fold), Vmax/Km ATP over Vmax/Km analog: 503 ^e fold
SARS-CoV-2 RdRp complex [12]
  Vmax (product fraction): 0.88 ± 0.015
Influenza B RdRp [2]; FluB RdRp, ref Gordon et al. ([45])
  Selectivity (fold), Vmax/Km ATP over Vmax/Km analog: 68 ^d fold
Influenza B RdRp [2]
  Vmax (product fraction): 0.45 ± 0.0064
MERS-CoV RdRp complex [3]
  Vmax (product fraction): 0.90 ± 0.012
PIV-5 RdRp complex
  Selectivity (fold), Vmax/Km ATP over Vmax/Km analog: 8.3 fold and 8.31 fold
  Vmax (product fraction): 0.77 ± 0.042 and 0.69 ± 0.013
EV-71 RdRp [13]
  Pattern of inhibition of RNA primer extension after incorporation at position i: intermediate product at position “i + 3”
  Vmax (product fraction) of UTP incorporation at i + 1: 0.48 ± 0.005
PIV-5 RdRp
  Vmax (product fraction) of UTP incorporation at i + 1: 0.48 ± 0.0089
MERS-CoV RdRp
  Vmax (product fraction) of UTP incorporation at i + 1: 0.98 ± 0.018
RSV RdRp complex [4]; RSV RdRp, ref Tchesnokov et al. ([47])
  Selectivity (fold), Vmax/Km ATP over Vmax/Km analog: 2.7 fold and 2.73 ^e fold
RSV RdRp complex [4]
  Km: 0.5 ± 0.089 µM
  Vmax (product fraction): 0.82 ± 0.027
HPIV-3 RdRp complex
  Selectivity (fold), Vmax/Km ATP over Vmax/Km analog: 7.20 fold
  Vmax (product fraction): 0.63 ± 0.010 and 0.78 ± 0.012
LASV RdRp [5]
  Vmax (product fraction): 0.29 ± 0.091
MERS-CoV RdRp complex [6]
  Km: 0.0063 ± 0.0006 µM
  Selectivity (fold), Vmax/Km ATP over Vmax/Km analog: 0.35 ^d fold
  Vmax (product fraction): 0.50 ± 0.012
SARS-CoV-2 RdRp
  Pattern of inhibition of RNA primer extension after incorporation at position i: intermediate product at position “i + 3”
  Vmax (product fraction) of UTP incorporation at i + 1: 1.13 ± 0.047
HPIV-3 RdRp
  Vmax (product fraction) of UTP incorporation at i + 1: 0.58 ± 0.011
[7]
  Vmax (product fraction): 0.67 ± 0.22
HRV-16 RdRp [14]
  Inhibition (fold) vs Template A: ~8 fold and 7.8 fold
  UTP: 3.9 µM
HRV-16 RdRp (3Dpol)
  Vmax (product fraction): 0.96 ± 0.015 and 0.80 ± 0.021
SARS-CoV RdRp complex
  Km: 0.01 ± 0.0008 µM
  Selectivity (fold), Vmax/Km ATP over Vmax/Km analog: 0.32 ^d fold
  Vmax (product fraction): 0.70 ± 0.015
EV-71 RdRp [15]
  Inhibition (fold) of UTP incorporation across embedded analog: ~16 fold
Influenza B RdRp [8]
  Vmax (product fraction): 0.18 ± 0.0057
SARS-CoV-2 RdRp complex [9]; [19]
  Km: 0.0089 ± 0.002 µM
  Selectivity (fold), Vmax/Km ATP over Vmax/Km analog: 0.28 ^d fold
SARS-CoV-2 RdRp complex [9]
  Vmax (product fraction): 0.74 ± 0.023
HMPV RdRp
  Vmax (product fraction) of UTP incorporation at i + 1: 0.28 ± 0.018
RSV RdRp complex [10]
  Vmax (product fraction): 0.80 ± 0.059
HRV-16 RdRp [16]
  Pattern of inhibition of RNA primer extension after incorporation at position i: intermediate product at position “i + 3”
  Vmax (product fraction) of UTP incorporation at i + 1: 0.67 ± 0.015
LASV RdRp [11]
  Km: 1.3 ± 0.18 µM
  Selectivity (fold), Vmax/Km ATP over Vmax/Km analog: 20 ^d fold
  Vmax (product fraction): 0.35 ± 0.016
EV-71 RdRp (3Dpol)
  Vmax (product fraction): 0.93 ± 0.027 and 0.93 ± 0.019
HMPV RdRp complex
  Selectivity (fold), Vmax/Km ATP over Vmax/Km analog: 6.7 fold and 6.71 fold
  Vmax (product fraction): 0.57 ± 0.045 and 0.53 ± 0.027

## AMP
EV-71 RdRp [13]
  Vmax (product fraction) of UTP incorporation at i + 1: 0.65 ± 0.003
PIV-5 RdRp
  Vmax (product fraction) of UTP incorporation at i + 1: 0.51 ± 0.022
MERS-CoV RdRp
  Vmax (product fraction) of UTP incorporation at i + 1: 1.03 ± 0.016
RSV RdRp
  Vmax (product fraction) of UTP incorporation at i + 1: 0.70 ± 0.037
HPIV-3 RdRp
  Vmax (product fraction) of UTP incorporation at i + 1: 0.56 ± 0.0097
HMPV RdRp
  Vmax (product fraction) of UTP incorporation at i + 1: 0.48 ± 0.026
HRV-16 RdRp [16]
  Vmax (product fraction) of UTP incorporation at i + 1: 0.76 ± 0.015

## EV-71 RdRp (3Dpol) (Enterovirus A71)
[17]
  Km: 0.86 ± 0.081 µM
[18]
  Km: 0.96 ± 0.066 µM

## HMPV RdRp complex (Human metapneumovirus CAN97-83)
[17]
  Km: 42.19 ± 7.79 µM

## HPIV-3 RdRp complex (Human parainfluenza 3 virus (strain NIH 47885))
[17]
  Km: 0.44 ± 0.040 µM
[18]
  Km: 0.061 ± 0.015 µM

## HRV-16 RdRp (3Dpol) (rhinovirus A16)
[17]
  Km: 4.96 ± 0.27 µM
[18]
  Km: 4.52 ± 0.31 µM

## LASV RdRp (Lassa virus Josiah)
[18]
  Km: 0.39 ± 0.075 µM

## MERS-CoV RdRp complex (Betacoronavirus England 1)
[18]
  Km: 0.032 ± 0.0014 µM

## PIV-5 RdRp complex (Simian virus 5 (strain W3))
[17]
  Km: 13 ± 2.3 µM
[18]
  Km: 1.5 ± 0.25 µM

## RSV RdRp complex (Human respiratory syncytial virus A2)
[18]
  Km: 0.97 ± 0.36 µM

## SARS-CoV-2 RdRp complex (Severe acute respiratory syndrome coronavirus 2)
[18]
  Km: 0.057 ± 0.0078 µM
